Laboratory results as given in US20090192077A1, “North-2'deoxy -methanocarbathymidines as antiviral agents for treatment of kaposi's sarcoma-associated herpes virus” (priority 2005, published 2009).

Key:
CEM-SS cells = test: Intracellular phosphorylation in uninfected CEM-SS cells; details: 10 μM N-MCT, with or without PMA-stimulation
Protocol: (§1) Exponentially growing BCBL-1 cells or CEM-SS cells (a human T cell line) were washed three times with PBS and cultured in serum free AIM-V w/BSA medium (Invitrogen) at 2×10^5 cells/mL in the absence (unstimulated control) or presence of 20 ng/mL PMA. After 24 hours, unstimulated and PMA-stimulated cells were harvested, washed once with PBS and resuspended in serum free AIM-V w/BSA medium at 2×10^5 cells/mL without PMA in the absence or presence of 10 μM N-MCT, CDV or GCV and 5 μCi/mL of the corresponding radiolabeled compound [^3H]-(N)-MCT, [^3H]-CDV or [^3H]-GCV. Control cultures containing the same concentration of the test compounds but without the radiolabeled formulations were simultaneously set up in an identical manner to assess the cell counts and to evaluate their anti-KSHV activity. In selected experiments, 5′-ET was added at 10˜50 μM to investigate the changes in the anti-KSHV activity and intracellular phosphorylation profiles of the test compounds. The cells were harvested after 24 or 72 hours of incubation.
Upon harvest, the cells were centrifuged at 1,500 rpm for 10 min and washed once with cold PBS. […] Fractions containing radiolabeled nucleotides were quantitated based on the known specific activity of the parent tritiated nucleoside (Noy, R. et al. 2002 Mol Cancer Ther 1:585-93; Zalah, L. et al. 2002 Antiviral Res 55:63-75).

BCBL-1 cells = test: Intracellular phosphorylation in KSHV-infected BCBL-1 cells (HPLC of methanolic extracts)
Protocol: as §1, with “w/BSA medium at 2×10^5 cells/mL without PMA in the absence or presence of 10 μM N-MCT, CDV or GCV and 5 μCi/mL of the corresponding” left out
Upon harvest, the cells were centrifuged at 1,500 rpm for 10 min and washed once with cold PBS. The cell pellets were resuspended in 250 μL of 60% methanol and heated at 95° C. for 3 min, followed by a microcentrifugation at 12,000 g for 10 min at 4° C. The clarified supernatant fractions were evaporated under nitrogen, redissolved in 250 μL of water and subjected to HPLC separation of the phosphorylated metabolites as described in detail elsewhere (Noy, R. et al. 2002 Mol Cancer Ther 1:585-93; Zalah, L. et al. 2002 Antiviral Res 55:63-75). Fractions containing radiolabeled nucleotides were quantitated based on the known specific activity of the parent tritiated nucleoside (Noy, R. et al. 2002 Mol Cancer Ther 1:585-93; Zalah, L. et al. 2002 Antiviral Res 55:63-75).

EBV TK = EBV TK (Epstein-Barr virus, UniProt P03177); details: cited from earlier work
Sequence of EBV TK (P03177 whole entry): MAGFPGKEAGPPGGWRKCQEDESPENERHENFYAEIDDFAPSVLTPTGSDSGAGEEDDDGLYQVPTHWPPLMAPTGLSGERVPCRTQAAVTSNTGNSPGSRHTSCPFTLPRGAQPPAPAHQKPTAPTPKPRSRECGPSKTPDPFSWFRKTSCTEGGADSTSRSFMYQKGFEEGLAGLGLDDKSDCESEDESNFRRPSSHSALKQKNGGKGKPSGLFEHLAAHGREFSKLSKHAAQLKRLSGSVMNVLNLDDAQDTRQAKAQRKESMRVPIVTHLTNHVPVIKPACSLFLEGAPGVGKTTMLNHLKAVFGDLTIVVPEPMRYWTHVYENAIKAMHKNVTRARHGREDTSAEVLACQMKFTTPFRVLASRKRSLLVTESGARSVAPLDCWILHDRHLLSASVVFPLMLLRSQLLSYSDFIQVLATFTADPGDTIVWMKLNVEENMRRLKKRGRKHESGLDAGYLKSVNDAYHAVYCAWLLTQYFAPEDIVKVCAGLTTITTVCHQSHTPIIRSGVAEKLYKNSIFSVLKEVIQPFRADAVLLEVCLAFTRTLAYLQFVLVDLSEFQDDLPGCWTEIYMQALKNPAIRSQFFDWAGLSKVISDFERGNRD

human cellular TK = details: cited from earlier work
HSV-1 TK = HSV-1 TK (Human herpesvirus 1, UniProt P0DTH5); details: cited from earlier work
Sequence of HSV-1 TK (P0DTH5 whole entry): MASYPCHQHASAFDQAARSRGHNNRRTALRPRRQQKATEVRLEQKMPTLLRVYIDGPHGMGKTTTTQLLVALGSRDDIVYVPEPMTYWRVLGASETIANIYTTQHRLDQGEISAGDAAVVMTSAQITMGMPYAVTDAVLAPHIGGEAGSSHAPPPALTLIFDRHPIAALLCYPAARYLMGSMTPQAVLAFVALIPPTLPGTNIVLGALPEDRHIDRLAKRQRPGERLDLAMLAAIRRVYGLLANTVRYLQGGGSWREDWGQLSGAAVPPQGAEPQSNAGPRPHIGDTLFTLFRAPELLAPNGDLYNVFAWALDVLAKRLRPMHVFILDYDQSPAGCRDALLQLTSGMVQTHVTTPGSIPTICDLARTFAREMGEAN

Which results are given for `Cc1cn([C@H]2C[C@H](O)[C@]3(COP(=O)(O)OP(=O)(O)OP(=O)(O)O)C[C@H]23)c(=O)[nH]c1=O` [N-MCT-TP, North-methanocarbathymidine triphosphate]?
accumulation of phosphorylated metabolite in uninfected cells (CEM-SS cells): no appreciable accumulations; intracellular level compared with CDV-DP and GCV-TP (BCBL-1 cells; 10 μM of each compound, up to 72 hours, especially PMA-stimulated BCBL-1): significantly higher; level of phosphorylated metabolite in the presence of 50 μM 5'-ET (BCBL-1 cells; PMA-induced BCBL-1, 1, 3 or 10 μM N-MCT): substantially decreased

Which “inhibitory activity against EBV TK” value (EBV TK) does the source give for `C#CC(O)[C@H]1O[C@@H](n2cc(C)c(=O)[nH]c2=O)C[C@@H]1O` (stereo partly drawn) [5′-ET, 5′-ethynylthymidine] here?
Its value is “strong inhibitory activity”.

And the “inhibitory activity against human cellular TK” value (human cellular TK)?
Its value is “not against human cellular TK”.

And the “inhibitory activity against HSV-1 TK” value (HSV-1 TK)?
The value was “strong inhibitory activity”.
